Data as given in US9120812B2, “Pyrimidooxazocine derivatives as mTOR-inhibitors” (SANOFI, priority 2012, dated 2015).
pIC50: −log10 of the molar value.

How the values were obtained:
U87MG tumour cells = test: Test of in vitro proliferation of U87MG tumour cells; assay type: cell-based; conditions: Homo sapiens, U-87 MG, 72 h, U87MG cells, 72 hours; read-out: U87 Cell Proliferation IC50
Protocol: Model 4: Test of in vitro Proliferation of U87MG Tumour Cells.
The cell growth is determined with the reagent CellTiter 96 AQueous One Solution Cell Proliferation Assay from Promega (Cat. No. G3581).

PI3Kα (p110α/p85α) = PI3Kα (p110α/p85α) (Homo sapiens (Human), UniProt P42336); test: PI3Kα enzymatic test by measuring the consumption of ATP; assay type: biochemical
Protocol: Model 2: PI3Kα Enzymatic Test by Measuring the Consumption of ATP.
The test uses a lucifeurerin/luciferase system to measure the concentration of ATP and its consumption during the enzymatic reaction. The test is performed in 96-well format (Corning/Costar 96 black flat-bottomed half-wells plate, ref. 3694) in a total volume of 30 μl.
To 1 μl of inhibitor in 100% DMSO are added (final concentrations) 50 μM of the substrate PIP2 ((L-α-phosphatidyl-D-myoinositol 4,5-bisphosphate, Echelon 117P-4516-0500), 2 μM of ATP and 1.7 μg/ml of PI3Kα, (p110α/p85α, Invitrogen PV4788) in a buffer of Tris/HCl 50 mM pH 7.5, EGTA 1 mM, MgCl2 10 mM, Chaps 0.03%, 1 mM DTT). After 90 minutes, the reaction is quenched by adding 20 μl/well of KinaseGlo reagent (Promega V6713). After 10 minutes in the dark, the luminescence is read on the PHERAStar microplate reader (reading at 0.8 sec/well).
The IC50 values are determined by the preparation of successive threefold dilutions on at least a scale of 10 000.

[1] = target: mTOR (human recombinant aa mTOR 1360-2549) (Homo sapiens (Human), UniProt P42345); test: mTOR enzymatic test by TR-FRET (phosphorylation of GFP-4EBP1); assay type: biochemical
Protocol: Model 1: mTOR Enzymatic Test by TR-FRET (Time-resolved Fluorescence Resonance Energy Transfer).
The test detects the phosphorylation of the substrate GFP-4EBP1 using a terbium-labelled antibody that is specific for the phospho-Thr46 epitope. Binding of the Tb-antibody to the phosphorylated GFP peptide allows the transfer of energy from Tb, excited at 340 nm, to GFP with an increase in the fluorescence emission of the GFP at 520 nm. […] The mixture is incubated for 30 minutes at room temperature. 10 μl of solution are taken up and the reaction is quenched by adding 10 μl of Tb-antibody solution (Invitrogen PV4757)/EDTA (2 nM Tb-Ac and 10 mM EDTA final). After 60 minutes at room temperature, the fluorescence at 490 nm, from the Tb emission, and at 520 nm, from the GFP emission, is measured in a BMG PHERAstar reader equipped with a Lanthascreen™ filter (excitation at 340 nm, emission at 490 and 520 nm). The results are given in the form of the 520/490 ratio.

Akt-pS473 in U87MG cells = conditions: Homo sapiens, U-87 MG, read-out: U87 Akt-pS473 % Inhibition or IC50, nM (IC50), U87MG cells

Chain of PI3Kα (p110α/p85α) (P42336 whole entry): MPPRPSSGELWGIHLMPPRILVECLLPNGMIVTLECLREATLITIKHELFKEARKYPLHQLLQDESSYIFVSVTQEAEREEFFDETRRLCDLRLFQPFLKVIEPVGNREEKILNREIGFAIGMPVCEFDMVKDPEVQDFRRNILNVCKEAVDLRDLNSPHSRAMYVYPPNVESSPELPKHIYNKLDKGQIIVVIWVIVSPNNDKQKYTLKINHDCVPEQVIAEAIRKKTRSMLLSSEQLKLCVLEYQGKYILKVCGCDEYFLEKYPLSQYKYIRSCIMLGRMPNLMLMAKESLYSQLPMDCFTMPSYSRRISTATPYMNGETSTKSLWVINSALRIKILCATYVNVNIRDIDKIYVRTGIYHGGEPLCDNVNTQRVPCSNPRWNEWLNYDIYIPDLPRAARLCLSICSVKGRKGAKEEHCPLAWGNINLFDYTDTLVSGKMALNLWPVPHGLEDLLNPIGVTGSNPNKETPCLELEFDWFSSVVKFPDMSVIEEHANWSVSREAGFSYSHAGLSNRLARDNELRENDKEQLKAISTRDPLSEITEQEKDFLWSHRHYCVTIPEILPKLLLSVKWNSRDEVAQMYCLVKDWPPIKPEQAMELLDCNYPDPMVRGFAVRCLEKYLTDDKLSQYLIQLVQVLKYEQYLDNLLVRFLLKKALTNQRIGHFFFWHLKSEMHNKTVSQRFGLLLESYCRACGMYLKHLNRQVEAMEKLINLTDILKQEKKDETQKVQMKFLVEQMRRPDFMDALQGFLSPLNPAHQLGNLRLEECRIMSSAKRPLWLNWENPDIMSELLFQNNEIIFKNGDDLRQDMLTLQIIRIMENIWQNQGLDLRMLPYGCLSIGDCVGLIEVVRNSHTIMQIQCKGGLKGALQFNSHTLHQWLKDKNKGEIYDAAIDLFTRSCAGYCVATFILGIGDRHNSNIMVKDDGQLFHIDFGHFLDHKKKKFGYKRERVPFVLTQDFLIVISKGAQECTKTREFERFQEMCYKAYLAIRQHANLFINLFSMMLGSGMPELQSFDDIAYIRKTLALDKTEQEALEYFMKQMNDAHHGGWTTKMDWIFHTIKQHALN
Chain of PI3Kα (p110α/p85α) (P27986 whole entry partner): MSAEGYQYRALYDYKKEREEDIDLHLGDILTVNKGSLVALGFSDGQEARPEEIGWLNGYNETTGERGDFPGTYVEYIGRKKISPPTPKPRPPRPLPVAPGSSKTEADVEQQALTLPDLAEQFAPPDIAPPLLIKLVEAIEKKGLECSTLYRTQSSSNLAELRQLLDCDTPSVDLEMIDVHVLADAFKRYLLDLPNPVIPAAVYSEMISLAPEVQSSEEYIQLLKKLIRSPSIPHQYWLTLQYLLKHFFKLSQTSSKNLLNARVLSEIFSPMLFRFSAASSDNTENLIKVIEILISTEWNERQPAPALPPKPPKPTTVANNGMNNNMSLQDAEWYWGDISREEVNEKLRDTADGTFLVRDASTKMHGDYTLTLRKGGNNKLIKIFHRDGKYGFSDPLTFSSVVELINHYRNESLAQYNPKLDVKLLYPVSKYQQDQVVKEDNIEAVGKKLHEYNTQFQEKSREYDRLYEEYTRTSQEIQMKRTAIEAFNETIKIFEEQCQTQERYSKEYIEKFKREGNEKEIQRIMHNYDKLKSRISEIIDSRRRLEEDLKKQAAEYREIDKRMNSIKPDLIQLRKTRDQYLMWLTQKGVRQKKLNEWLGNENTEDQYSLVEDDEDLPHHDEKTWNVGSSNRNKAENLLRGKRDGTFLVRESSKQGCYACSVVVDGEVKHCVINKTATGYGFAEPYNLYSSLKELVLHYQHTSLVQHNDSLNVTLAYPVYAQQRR
Chain of mTOR (human recombinant aa mTOR 1360-2549) (P42345 1360-2549): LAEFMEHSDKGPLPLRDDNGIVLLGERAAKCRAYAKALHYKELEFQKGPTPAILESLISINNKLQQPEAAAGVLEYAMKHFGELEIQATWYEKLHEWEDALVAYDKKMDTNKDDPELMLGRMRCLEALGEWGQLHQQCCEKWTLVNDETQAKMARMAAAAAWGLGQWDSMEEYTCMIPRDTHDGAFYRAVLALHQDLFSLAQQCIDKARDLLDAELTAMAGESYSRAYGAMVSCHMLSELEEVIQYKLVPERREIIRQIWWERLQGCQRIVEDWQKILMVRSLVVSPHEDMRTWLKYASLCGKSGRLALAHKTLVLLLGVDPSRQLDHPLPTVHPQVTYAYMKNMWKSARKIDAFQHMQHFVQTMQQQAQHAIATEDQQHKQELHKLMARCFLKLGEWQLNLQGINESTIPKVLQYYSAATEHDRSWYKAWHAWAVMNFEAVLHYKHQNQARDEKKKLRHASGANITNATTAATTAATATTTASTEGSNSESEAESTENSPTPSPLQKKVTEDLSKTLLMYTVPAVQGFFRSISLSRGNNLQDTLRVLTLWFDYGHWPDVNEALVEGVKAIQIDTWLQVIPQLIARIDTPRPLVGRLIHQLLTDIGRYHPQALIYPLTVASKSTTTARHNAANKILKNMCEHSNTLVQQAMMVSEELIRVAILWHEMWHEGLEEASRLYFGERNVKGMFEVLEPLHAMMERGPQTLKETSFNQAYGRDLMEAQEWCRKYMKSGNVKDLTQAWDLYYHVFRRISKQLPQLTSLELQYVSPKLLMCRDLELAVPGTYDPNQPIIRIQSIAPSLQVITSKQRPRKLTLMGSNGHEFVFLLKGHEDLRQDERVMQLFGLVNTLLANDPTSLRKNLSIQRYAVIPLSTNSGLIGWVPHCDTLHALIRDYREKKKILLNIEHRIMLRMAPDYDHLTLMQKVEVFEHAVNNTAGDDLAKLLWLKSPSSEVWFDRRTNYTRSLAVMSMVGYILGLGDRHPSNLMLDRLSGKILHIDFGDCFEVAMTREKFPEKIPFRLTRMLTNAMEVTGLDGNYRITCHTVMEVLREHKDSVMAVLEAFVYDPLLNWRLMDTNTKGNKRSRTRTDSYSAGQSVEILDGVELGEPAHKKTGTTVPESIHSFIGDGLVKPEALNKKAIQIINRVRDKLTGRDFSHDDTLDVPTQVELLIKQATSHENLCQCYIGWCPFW

SMILES	pIC50 (U87MG tumour cells)	PI3Ka IC50 (PI3Kα (p110α/p85α))	pIC50 [1]	IC50 (Akt-pS473 in U87MG cells)
CCN1CC(C)(C)Oc2nc(N3CCOC[C@@H]3C)nc(-c3ccc(NC(=O)Nc4cc(OC)ccn4)cc3F)c2C1=O [Example 242, 1-{4-[6-Ethyl-8,8-dimethyl-2-((S)-3-methylmorpholin-4-yl)-5-oxo-5,6,7,8-tetrahydro-9-oxa-1,3,6-triazabenzocyclohepten-4-yl]-3-fluorophenyl}-3-(4-methoxypyridin-2-yl)urea]	5.64	>10000 nM	7.05	770 nM
COc1ccc(NC(=O)Nc2ccc(-c3nc(N4C5CCC4COC5)nc4c3C(=O)N(C)CC(C)(C)O4)cc2)nc1 [Example 49, 1-(5-Methoxypyridin-2-yl)-3-{4-[6,8,8-trimethyl-2-(3-oxa-8-azabicyclo[3.2.1]oct-8-yl)-5-oxo-5,6,7,8-tetrahydro-9-oxa-1,3,6-triazabenzocyclohepten-4-yl]phenyl}urea]	6.81	>10000 nM	7.49	21 nM
CCN1CC(C)(C)Oc2nc(N3CCOC[C@@H]3C)nc(-c3ccc(NC(=O)Nc4ccon4)c(C)c3)c2C1=O [Example 26, 1-{4-[6-ethyl-8,8-dimethyl-2-((S)-3-methylmorpholin-4-yl)-5-oxo-5,6,7,8-tetrahydro-9-oxa-1,3,6-triazabenzocyclohepten-4-yl]-2-methylphenyl}-3-isoxazol-3-ylurea]	5.45	3860 nM	6.95	> 1000 nM
CN1CC(C)(C)Oc2nc(N3C4CCC3COC4)nc(-c3ccc(NC(=O)Nc4ccncc4)c(F)c3)c2C1=O [Example 82, 1-{2-Fluoro-4-[6,8,8-trimethyl-2-(3-oxa-8-azabicyclo[3.2.1]oct-8-yl)-5-oxo-5,6,7,8-tetrahydro-9-oxa-1,3,6-triazabenzocyclohepten-4-yl]phenyl}-3-pyridin-4-ylurea]	7.54	2240 nM	7.68	13 nM
CCN1CC(C)(C)Oc2nc(N3C4CCC3COC4)nc(-c3ccc(NC(=O)Nc4cccnc4)c(F)c3)c2C1=O [Example 50, 1-{4-[6-Ethyl-8,8-dimethyl-2-(3-oxa-8-azabicyclo[3.2.1]oct-8-yl)-5-oxo-5,6,7,8-tetrahydro-9-oxa-1,3,6-triazabenzocyclohepten-4-yl]-2-fluorophenyl}-3-pyridin-3-ylurea]	7.40	2870 nM	7.41	7 nM
CCN1CC(C)(C)Oc2nc(N3CC4CCC(C3)O4)nc(-c3ccc(NC(=O)Nc4ccc(N5CCOCC5)cn4)cc3)c2C1=O [Example 250, 1-{4-[6-Ethyl-8,8-dimethyl-2-(8-oxa-3-azabicyclo[3.2.1]oct-3-yl)-5-oxo-5,6,7,8-tetrahydro-9-oxa-1,3,6-triazabenzocyclohepten-4-yl]phenyl}-3-(5-morpholin-4-ylpyridin-2-yl)urea]	7.00	>10000 nM	7.44	38 nM
CCN1CC(C)(C)Oc2nc(N3CCOC[C@@H]3C)nc(-c3ccc(NC(=O)NCC(F)(F)F)c(F)c3)c2C1=O [Example 149, 1-{4-[6-Ethyl-8,8-dimethyl-2-((S)-3-methylmorpholin-4-yl)-5-oxo-5,6,7,8-tetrahydro-9-oxa-1,3,6-triazabenzocyclohepten-4-yl]-2-fluorophenyl}-3-(2,2,2-trifluoroethyl)urea]	6.07	>10000 nM	6.95	154 nM
CCN1CC(C)(C)Oc2nc(N3CC4CCC(C3)O4)nc(-c3ccc(NC(=O)OCCO)c(F)c3)c2C1=O [Example 222, {4-[6-Ethyl-8,8-dimethyl-2-(8-oxa-3-azabicyclo[3.2.1]oct-3-yl)-5-oxo-5,6,7,8-tetrahydro-9-oxa-1,3,6-triazabenzocyclohepten-4-yl]-2-fluorophenyl}carbamic acid 2-hydroxyethyl ester]	5.77	>10000 nM	6.91	213 nM
CCN1CC(C)(C)Oc2nc(N3CC4CCC(C3)O4)nc(-c3ccc(Nc4nnc(C)[nH]4)c(F)c3)c2C1=O [Example 152, 6-Ethyl-4-[3-fluoro-4-(5-methyl-4H-[1,2,4]triazol-3-ylamino)phenyl]-8,8-dimethyl-2-(8-oxa-3-azabicyclo[3.2.1]oct-3-yl)-7,8-dihydro-6H-9-oxa-1,3,6-triazabenzocyclohepten-5-one]	5.57	>10000 nM	6.46	257 nM
CNC(=O)Nc1ccc(-c2nc(N3CC4CCC(C3)O4)nc3c2C(=O)N(C)CC(C)(C)O3)cc1F [Example 45, 1-{2-Fluoro-4-[6,8,8-trimethyl-2-(8-oxa-3-azabicyclo[3.2.1]oct-3-yl)-5-oxo-5,6,7,8-tetrahydro-9-oxa-1,3,6-triazabenzocyclohepten-4-yl]phenyl}-3-methylurea]	7.07	4000 nM	7.62	32 nM
CCN1CC(C)(C)Oc2nc(N3CCOC[C@@H]3C)nc(-c3ccc(NC(=O)Nc4ccc(N5CCN(C)CC5)nc4)cc3)c2C1=O [Example 174, 1-{4-[6-Ethyl-8,8-dimethyl-2-((S)-3-methylmorpholin-4-yl)-5-oxo-5,6,7,8-tetrahydro-9-oxa-1,3,6-triazabenzocyclohepten-4-yl]phenyl}-3-[6-(4-methylpiperazin-1-yl)pyridin-3-yl]urea]	6.90	326 nM	7.66	36 nM
CCN1CC(C)(C)Oc2nc(N3CC4CCC(C3)O4)nc(-c3ccc(NC(=O)NCCF)cc3)c2C1=O [Example 123, 1-{4-[6-Ethyl-8,8-dimethyl-2-(8-oxa-3-azabicyclo[3.2.1]oct-3-yl)-5-oxo-5,6,7,8-tetrahydro-9-oxa-1,3,6-triazabenzocyclohepten-4-yl]phenyl}-3-(2-fluoroethyl)urea]	6.66	3627 nM	7.66	150 nM
CCNC(=O)Nc1ccc(-c2nc(N3CC4CCC(C3)O4)nc3c2C(=O)N(CC)CC(C)(C)CO3)cc1 [Example 10, 1-Ethyl-3-{4-[6-ethyl-8,8-dimethyl-2-(8-oxa-3-azabicyclo[3.2.1]oct-3-yl)-5-oxo-6,7,8,9-tetrahydro-5H-10-oxa-1,3,6-triazabenzocycloocten-4-yl]phenyl}urea]	5.06	>10000 nM	6.46	611 nM
CCN1CC(C)(C)Oc2nc(N3CC4CCC(C3)O4)nc(-c3ccc(NC(=O)Nc4cnc(OC)cn4)cc3)c2C1=O [Example 198, 1-{4-[6-Ethyl-8,8-dimethyl-2-(8-oxa-3-azabicyclo[3.2.1]oct-3-yl)-5-oxo-5,6,7,8-tetrahydro-9-oxa-1,3,6-triazabenzocyclohepten-4-yl]phenyl}-3-(5-methoxypyrazin-2-yl)urea]	6.50	>10000 nM	7.24	44 nM
CCN1CC(C)(C)Oc2nc(N3CC4CCC(C3)O4)nc(-c3ccc(NC(=O)Nc4ccc(N5CCN(S(C)(=O)=O)CC5)cc4)c(F)c3)c2C1=O [Example 235, 1-{4-[6-Ethyl-8,8-dimethyl-2-(8-oxa-3-azabicyclo[3.2.1]oct-3-yl)-5-oxo-5,6,7,8-tetrahydro-9-oxa-1,3,6-triazabenzocyclohepten-4-yl]-2-fluorophenyl}-3-[4-(4-methanesulfonylpiperazin-1-yl)phenyl]urea]	7.54	>7200 nM	7.05	10 nM
CCNC(=O)Nc1ccc(-c2nc(N3CCOCC3)nc3c2C(=O)NCC(C)(C)O3)cc1 [Example 94, 1-[4-(8,8-Dimethyl-2-morpholin-4-yl-5-oxo-5,6,7,8-tetrahydro-9-oxa-1,3,6-triazabenzocyclohepten-4-yl)phenyl]-3-ethylurea]	–	7320 nM	6.95	> 10000 nM
